Measured values from patent publication US7728155B2, “Dihydrobenzofuranyl alkanamines and methods for using same as cns agents” (Wyeth LLC, priority 2003, dated 2010).
Where a name gives a salt, the structure may show the parent alone.

test system: not given; test: not given; settings: not given

melting point | SMILES
> 220 °C (dec.) | NCC1Cc2ccc3c(c2O1)CCCC3 (racemic) (as salt: hydrochloride) [Example 4, (±)-1-(2,3,6,7,8,9-hexahydronaphtho[1,2-b]furan-2-yl)methanamine]
> 200 °C (dec.) | Cc1cc2c(c3c1CCC3)OC(CN)C2 (racemic) (as salt: hydrochloride) [Example 7, (±)-1-(5-methyl-3,6,7,8-tetrahydro-2H-indeno[4,5-b]furan-2-yl)methanamine]
> 250 °C (dec.) | NCC1Cc2ccc3ccccc3c2O1 (racemic) (as salt: hydrochloride) [Example 10, (±)-1-(2,3-dihydronaphtho[1,2-b]furan-2-yl)methanamine]
> 225 °C | NCC1Cc2cc3c(cc2O1)CCCC3 (racemic) (as salt: hydrochloride) [Example 13, (±)-1-(2,3,5,6,7,8-hexahydronaphtho[2,3-b]furan-2-yl)methanamine]
> 225 °C | NCC1Cc2c(ccc3c2CCCC3)O1 (racemic) (as salt: hydrochloride) [Example 14, (±)-1-(1,2,6,7,8,9-hexahydronaphtho[2,1-b]furan-2-yl)methanamine]
> 210 °C | COc1cc2c(c3c1C1CCC3CC1)OC(CN)C2 (racemic) (as salt: hydrochloride) [Example 19, (±)-1-(5-methoxy-2,3,6,7,8,9-hexahydro-6,9-ethanonaphtho[1,2-b]furan-2-yl)methanamine]
269 to 271 °C | NCC1Cc2cc(Cl)c3ccccc3c2O1 (racemic) (as salt: hydrochloride) [Example 23, (±)-1-(5-chloro-2,3-dihydronaphtho[1,2-b]furan-2-yl)methanamine]
224 to 226 °C | CNCC1Cc2cc(Cl)c3ccccc3c2O1 (racemic) (as salt: hydrochloride) [Example 24, (±)-1-(5-chloro-2,3-dihydronaphtho[1,2-b]furan-2-yl)-N-methylmethanamine]
251 to 254 °C | NCC1Cc2c(Cl)cc3c(c2O1)CCC3 (racemic) (as salt: hydrochloride) [Example 25, (±)-1-(4-chloro-3,6,7,8-tetrahydro-2H-indeno[4,5-b]furan-2-yl)methanamine]
270 °C (dec.) | NCC1Cc2cc(Cl)c3c(c2O1)CCC3 (racemic) (as salt: hydrochloride) [Example 29, (±)-1-(5-chloro-3,6,7,8-tetrahydro-2H-indeno[4,5-b]furan-2-yl)methanamine]
58 to 60 °C | CNCC1Cc2c(Cl)cc3c(c2O1)CCC3 (racemic) [Example 28, (±)-1-(4-chloro-3,6,7,8-tetrahydro-2H-indeno[4,5-b]furan-2-yl)-N-methylmethanamine]
> 180 °C (dec.) | COc1cc2c(c3c1C1CCC3C1)OC(CN)C2 (single isomer, unassigned) (as salt: hydrochloride) [Example 16, (9-methoxy-4-oxatetracyclo[9.2.1.0^2,10.0^3,7]tetradeca-2,7,9-trien-5-yl)methylamine]
> 150 °C (dec.) | COc1cc2c(c3c1C1CCC3C1)OC(CN)C2 (single isomer, unassigned) (as salt: hydrochloride) [Example 17, (9-methoxy-4-oxatetracyclo[9.2.1.0^2,10.0^3,7]tetradeca-2,7,9-trien-5-yl)methylamine]
> 220 °C | Cc1cc2c(c3c1CCC3)OC(CN)C2 (single isomer, unassigned; (+)) (as salt: hydrochloride) [Example 8, (+)-1-(5-methyl-3,6,7,8-tetrahydro-2H-indeno[4,5-b]furan-2-yl)methanamine]
> 220 °C | COc1cc2c(c3c1C1CCC3CC1)OC(CN)C2 (single isomer, unassigned; (+)) (as salt: hydrochloride) [Example 20, (+)-1-(5-methoxy-2,3,6,7,8,9-hexahydro-6,9-ethanonaphtho[1,2-b]furan-2-yl)methanamine]
> 330 °C | NCC1Cc2cc(Cl)c3c(c2O1)CCC3 (single isomer, unassigned; (-)) (as salt: hydrobromid) [Example 30, (−)-1-(5-chloro-3,6,7,8-tetrahydro-2H-indeno[4,5-b]furan-2-yl)methanamine]
265 to 268 °C | NCC1Cc2c(Cl)cc3c(c2O1)CCC3 (single isomer, unassigned; (-)) (as salt: hydrochloride) [Example 26, (−)-1-(4-chloro-3,6,7,8-tetrahydro-2H-indeno[4,5-b]furan-2-yl)methanamine]

SMILES | melting point
C[C@@H](N)[C@H]1Cc2ccc3c(c2O1)CCC3 (relative stereo) (as salt: hydrochloride) [Example 22, (2R*)-1-[(2R*)-3,6,7,8-tetrahydro-2H-indeno[4,5-b]furan-2-yl]ethylamine] | > 250 °C

biological target: T1, human 5-hydroxytryptamine-2C (h5-HT2C) receptor (Homo sapiens, UniProt P28335); test: [125I]DOI binding affinity at h5-HT2C receptor, CHO cell membranes; settings: [125I]DOI displacement, CHO membranes expressing h5-HT2C; read-out: 5-HT2C Affinity Ki
T1 construct: expressed in transfected cells; host or cells: CHO (Chinese Hamster Ovary) cells; membranes
T1 sequence (P28335 33-458): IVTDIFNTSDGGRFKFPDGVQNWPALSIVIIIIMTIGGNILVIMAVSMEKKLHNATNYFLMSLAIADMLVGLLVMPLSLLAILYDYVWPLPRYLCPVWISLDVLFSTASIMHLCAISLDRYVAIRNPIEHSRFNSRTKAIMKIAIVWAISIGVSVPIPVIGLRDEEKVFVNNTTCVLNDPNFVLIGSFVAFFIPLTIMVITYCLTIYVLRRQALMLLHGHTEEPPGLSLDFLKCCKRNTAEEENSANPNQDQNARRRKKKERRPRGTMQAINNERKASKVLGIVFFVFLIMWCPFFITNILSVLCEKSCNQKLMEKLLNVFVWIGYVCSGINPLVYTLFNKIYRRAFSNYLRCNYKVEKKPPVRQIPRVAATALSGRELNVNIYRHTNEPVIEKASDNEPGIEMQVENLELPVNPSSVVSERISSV

Ki [nM] | SMILES
11 | CNCC1Cc2c(Cl)cc3c(c2O1)CCC3 (racemic) [Example 28, (±)-1-(4-chloro-3,6,7,8-tetrahydro-2H-indeno[4,5-b]furan-2-yl)-N-methylmethanamine]
